{"source": "paper PMC5218480", "about": "(PLoS ONE, 2017)", "system": "MV-4-11 cells", "test": "Gene expression microarray analysis (Affymetrix PrimeView) and GSEA", "assay_type": "cell-based, human", "set-up": "RFU PODN (11730768_x_at) / Fold change /veh PODN (11730768_x_at) / RFU LINC00158 (11744669_a_at) / Fold change /veh LINC00158 (11744669_a_at) / RFU DUSP10 (11751237_a_at) / Fold change /veh DUSP10 (11751237_a_at) / RFU ID3 (11757404_x_at) / Fold change /veh ID3 (11757404_x_at) / RFU PLEKHG5 (11737974_s_at) / Fold change /veh PLEKHG5 (11737974_s_at) / RFU LRRC4B (11730491_at) / Fold change /veh LRRC4B (11730491_at) / RFU GIMAP4 (11747438_a_at) / Fold change /veh GIMAP4 (11747438_a_at) / RFU KRT8 (11758183_x_at) / Fold change /veh KRT8 (11758183_x_at) / RFU CNN1 (11734310_a_at) / Fold change /veh CNN1 (11734310_a_at) / RFU VPS37D (11726825_at) / Fold change /veh VPS37D (11726825_at) / RFU C10orf10 (11716522_x_at) / Fold change /veh C10orf10 (11716522_x_at) / RFU KIR2DL2 /// KIR2DL4 /// KIR2DL5A /// KIR2DL5B /// KIR2DS1 /// KIR2DS2 /// KIR2DS3 /// KIR2DS4 /// KIR3DL3 /// KIR3DL3 /// KIR3DS1 (11738374_at) / Fold change /veh KIR2DL2 /// KIR2DL4 /// KIR2DL5A /// KIR2DL5B /// KIR2DS1 /// KIR2DS2 /// KIR2DS3 /// KIR2DS4 /// KIR3DL3 /// KIR3DL3 /// KIR3DS1 (11738374_at) / RFU C1QL1 (11718748_at) / Fold change /veh C1QL1 (11718748_at) / RFU TMPRSS4 (11747572_a_at) / Fold change /veh TMPRSS4 (11747572_a_at) / RFU HAMP (11756126_x_at) / Fold change /veh HAMP (11756126_x_at) / RFU RNFT2 (11725882_a_at) / Fold change /veh RNFT2 (11725882_a_at) / RFU NR4A2 (11747474_a_at) / Fold change /veh NR4A2 (11747474_a_at) / RFU ABCC12 (11746883_a_at) / Fold change /veh ABCC12 (11746883_a_at) / RFU TMEM136 (11760407_x_at) / Fold change /veh TMEM136 (11760407_x_at) / RFU CLDN22 /// WWC2 (11732394_at) / Fold change /veh CLDN22 /// WWC2 (11732394_at) / RFU HLA-DPB1 (11760878_x_at) / Fold change /veh HLA-DPB1 (11760878_x_at) / RFU SPINT1 (11716480_a_at) / Fold change /veh SPINT1 (11716480_a_at) / RFU GAP43 (11754022_s_at) / Fold change /veh GAP43 (11754022_s_at) / RFU A4GNT (11735810_at) / Fold change /veh A4GNT (11735810_at) / RFU PRB3 (11715151_x_at) / Fold change /veh PRB3 (11715151_x_at) / RFU TUBB4B (11761932_at) / Fold change /veh TUBB4B (11761932_at) / RFU CAPN14 (11732068_a_at) / Fold change /veh CAPN14 (11732068_a_at) / RFU TMCC2 (11721928_a_at) / Fold change /veh TMCC2 (11721928_a_at) / RFU IRGQ (11745062_a_at) / Fold change /veh IRGQ (11745062_a_at) / RFU FAM174B (11720279_a_at) / Fold change /veh FAM174B (11720279_a_at) / RFU TMPRSS4 (11748680_a_at) / Fold change /veh TMPRSS4 (11748680_a_at) / RFU FAM212B (11763350_a_at) / Fold change /veh FAM212B (11763350_a_at) / RFU PLEKHG5 (11743358_a_at) / Fold change /veh PLEKHG5 (11743358_a_at) / RFU ZSCAN30 (11745921_a_at) / Fold change /veh ZSCAN30 (11745921_a_at) / RFU CMKLR1 (11741424_a_at) / Fold change /veh CMKLR1 (11741424_a_at) / RFU LOC101060620 /// MAPK8IP1 (11723275_at) / Fold change /veh LOC101060620 /// MAPK8IP1 (11723275_at) / RFU SPTSSB (11747773_x_at) / Fold change /veh SPTSSB (11747773_x_at) / RFU PRSS12 (11739890_at) / Fold change /veh PRSS12 (11739890_at) / RFU BIN1 (11741810_x_at) / Fold change /veh BIN1 (11741810_x_at) / RFU WNT11 (11732464_a_at) / Fold change /veh WNT11 (11732464_a_at) / RFU C10orf10 (11716521_a_at) / Fold change /veh C10orf10 (11716521_a_at) / RFU C5orf56 (11738089_at) / Fold change /veh C5orf56 (11738089_at) / RFU CYB561 (11721691_x_at) / Fold change /veh CYB561 (11721691_x_at) / RFU ANKRD19P (11752326_a_at) / Fold change /veh ANKRD19P (11752326_a_at) / RFU OR2T12 /// OR2T33 /// OR2T8 (11738714_s_at) / Fold change /veh OR2T12 /// OR2T33 /// OR2T8 (11738714_s_at) / RFU VCAN (11748164_a_at) / Fold change /veh VCAN (11748164_a_at) / RFU JSRP1 (11732532_at) / Fold change /veh JSRP1 (11732532_at) / RFU KRTAP10-11 (11738290_x_at) / Fold change /veh KRTAP10-11 (11738290_x_at) / RFU MYO3A (11730013_a_at) / Fold change /veh MYO3A (11730013_a_at) / RFU EBF3 (11725865_a_at) / Fold change /veh EBF3 (11725865_a_at) / RFU CAMK2N1 (11719241_x_at) / Fold change /veh CAMK2N1 (11719241_x_at) / RFU C5orf56 (11738088_a_at) / Fold change /veh C5orf56 (11738088_a_at) / RFU OLFML3 (11715873_a_at) / Fold change /veh OLFML3 (11715873_a_at) / RFU LOC100653217 /// NTM (11731650_a_at) / Fold change /veh LOC100653217 /// NTM (11731650_a_at) / RFU MAPK11 (11762145_a_at) / Fold change /veh MAPK11 (11762145_a_at) / RFU FIZ1 (11724087_x_at) / Fold change /veh FIZ1 (11724087_x_at) / RFU OASL (11726364_x_at) / Fold change /veh OASL (11726364_x_at) / RFU SOX15 (11748057_x_at) / Fold change /veh SOX15 (11748057_x_at) / RFU CD79A (11719716_a_at) / Fold change /veh CD79A (11719716_a_at) / RFU HIST1H1D (11736915_at) / Fold change /veh HIST1H1D (11736915_at) / RFU CASKIN2 (11723855_a_at) / Fold change /veh CASKIN2 (11723855_a_at) / RFU LOC730098 (11760151_x_at) / Fold change /veh LOC730098 (11760151_x_at) / RFU OR4N2 (11742367_at) / Fold change /veh OR4N2 (11742367_at) / RFU PRRT2 (11749266_a_at) / Fold change /veh PRRT2 (11749266_a_at) / RFU SNX32 (11753110_a_at) / Fold change /veh SNX32 (11753110_a_at) / RFU CDHR5 (11726645_a_at) / Fold change /veh CDHR5 (11726645_a_at) / RFU RCAN1 (11760418_a_at) / Fold change /veh RCAN1 (11760418_a_at) / RFU FAM167A (11723789_a_at) / Fold change /veh FAM167A (11723789_a_at) / RFU FAM26E (11764081_at) / Fold change /veh FAM26E (11764081_at) / RFU ISYNA1 (11749810_s_at) / Fold change /veh ISYNA1 (11749810_s_at) / RFU ACY1 (11761880_at) / Fold change /veh ACY1 (11761880_at) / RFU 11764098_at / Fold change /veh 11764098_at / RFU SAMD14 (11745864_x_at) / Fold change /veh SAMD14 (11745864_x_at) / RFU NPB (11741838_a_at) / Fold change /veh NPB (11741838_a_at) / RFU TMPRSS6 (11731388_a_at) / Fold change /veh TMPRSS6 (11731388_a_at) / RFU KRTAP10-2 (11738614_at) / Fold change /veh KRTAP10-2 (11738614_at) / RFU ARHGAP8 /// PRR5-ARHGAP8 (11727945_x_at) / Fold change /veh ARHGAP8 /// PRR5-ARHGAP8 (11727945_x_at) / RFU KRTAP5-7 /// NADSYN1 (11734609_at) / Fold change /veh KRTAP5-7 /// NADSYN1 (11734609_at) / RFU RASL12 (11751679_a_at) / Fold change /veh RASL12 (11751679_a_at) / RFU CDKN2B (11736163_a_at) / Fold change /veh CDKN2B (11736163_a_at) / RFU PRF1 (11729649_at) / Fold change /veh PRF1 (11729649_at) / RFU, ZNF638 /// ZNF638-IT1 / Fold change vs veh, ZNF638 /// ZNF638-IT1 / RFU, PANK3 / Fold change vs veh, PANK3 / RFU, SH3YL1 / Fold change vs veh, SH3YL1 / RFU, ZEB2 / Fold change vs veh, ZEB2 / RFU, NRIP1 / Fold change vs veh, NRIP1 / RFU, PTTG1IP / Fold change vs veh, PTTG1IP / RFU, CAPN2 / Fold change vs veh, CAPN2 / RFU, MED14 / Fold change vs veh, MED14 / RFU, SNORA58 / Fold change vs veh, SNORA58 / RFU, C1orf63 / Fold change vs veh, C1orf63 / RFU, LRRFIP1 / Fold change vs veh, LRRFIP1 / RFU, NDUFAF7 / Fold change vs veh, NDUFAF7 / RFU, SLC12A2 / Fold change vs veh, SLC12A2 / RFU, IBTK / Fold change vs veh, IBTK / RFU, ESF1 / Fold change vs veh, ESF1 / Fold change vs veh, TMEM50B / RFU, TAOK1 / Fold change vs veh, TAOK1 / RFU, ACBD3 / Fold change vs veh, ACBD3 / RFU, TMA16 / Fold change vs veh, TMA16 / RFU, RWDD3 / Fold change vs veh, RWDD3 / RFU, BCAT1 / Fold change vs veh, BCAT1 / RFU, EDEM3 / Fold change vs veh, EDEM3 / RFU, TMEM33 / Fold change vs veh, TMEM33 / RFU, WDR75 / Fold change vs veh, WDR75 / RFU, AHCTF1 / Fold change vs veh, AHCTF1 / RFU, TFRC / Fold change vs veh, TFRC / RFU, ZDHHC17 / Fold change vs veh, ZDHHC17 / RFU, NOM1 / Fold change vs veh, NOM1 / RFU, ARL8B / Fold change vs veh, ARL8B / RFU, ZBTB11 / Fold change vs veh, ZBTB11 / RFU, TAMM41 / Fold change vs veh, TAMM41 / RFU, KIAA1704 /// LOC100996395 / Fold change vs veh, KIAA1704 /// LOC100996395 / RFU, ING1 / Fold change vs veh, ING1 / RFU, TRMT61B / Fold change vs veh, TRMT61B / RFU, FUBP3 / Fold change vs veh, FUBP3 / RFU, TP53 / Fold change vs veh, TP53 / RFU, TNKS2 / Fold change vs veh, TNKS2 / RFU, ZFP14 / Fold change vs veh, ZFP14 / RFU, ACTR2 / Fold change vs veh, ACTR2 / RFU, PPP3R1 / Fold change vs veh, PPP3R1 / RFU, PIK3R1 / Fold change vs veh, PIK3R1 / RFU, HNRNPA1 / Fold change vs veh, HNRNPA1 / RFU, RNF170 / Fold change vs veh, RNF170 / RFU, ZNF28 / Fold change vs veh, ZNF28 / RFU, RNGTT / Fold change vs veh, RNGTT / RFU, OGT / Fold change vs veh, OGT / RFU, BRD1 / Fold change vs veh, BRD1 / RFU, MARS / Fold change vs veh, MARS / RFU, ZNF655 / Fold change vs veh, ZNF655 / RFU, FAHD1 / Fold change vs veh, FAHD1 / RFU, BDP1 / Fold change vs veh, BDP1 / RFU, LRRCC1 / Fold change vs veh, LRRCC1 / RFU, ARID1A / Fold change vs veh, ARID1A / RFU, ZNF146 / Fold change vs veh, ZNF146 / RFU, ZNF330 / Fold change vs veh, ZNF330 / RFU, GPN3 / Fold change vs veh, GPN3 / RFU, C9orf123 / Fold change vs veh, C9orf123 / RFU, N4BP2L2 / Fold change vs veh, N4BP2L2 / RFU, ARFIP1 / Fold change vs veh, ARFIP1 / RFU, FAM179B / Fold change vs veh, FAM179B / RFU, BCL10 / Fold change vs veh, BCL10 / RFU, UHRF1BP1L / Fold change vs veh, UHRF1BP1L / RFU, BET1 / Fold change vs veh, BET1 / RFU, CNOT2 / Fold change vs veh, CNOT2 / RFU, ZNF268 / Fold change vs veh, ZNF268 / Fold change vs veh, ZNF507 / RFU, DGCR2 / Fold change vs veh, DGCR2 / RFU, WDSUB1 / Fold change vs veh, WDSUB1 / Fold change vs veh, HSP90B1 /// MIR3652 / RFU, ADSS / Fold change vs veh, ADSS / RFU, GK / Fold change vs veh, GK / RFU, ZNF148 / Fold change vs veh, ZNF148 / RFU, TAF9 / Fold change vs veh, TAF9 / RFU, SLC1A5 / Fold change vs veh, SLC1A5 / RFU, SLMO2 / Fold change vs veh, SLMO2 / RFU, ABCC4 / Fold change vs veh, ABCC4 / RFU, LOC101060439 /// RAP1B / Fold change vs veh, LOC101060439 /// RAP1B / RFU, RFX7 / Fold change vs veh, RFX7 / RFU, GTPBP10 / Fold change vs veh, GTPBP10 / RFU, CNEP1R1 / Fold change vs veh, CNEP1R1 / RFU, BIVM-ERCC5 /// ERCC5 / Fold change vs veh, BIVM-ERCC5 /// ERCC5 / RFU, ILF3 / Fold change vs veh, ILF3 / RFU 11762660_at / Fold change /veh 11762660_at / RFU VCAN (11757783_s_at) / Fold change /veh VCAN (11757783_s_at) / RFU DDX43 (11728927_at) / Fold change /veh DDX43 (11728927_at) / RFU KRT8 (11758188_x_at) / Fold change /veh KRT8 (11758188_x_at) / RFU NKD1 (11759106_at) / Fold change /veh NKD1 (11759106_at) / RFU SRD5A1 (11742802_a_at) / Fold change /veh SRD5A1 (11742802_a_at) / RFU TPSAB1 /// TPSB2 (11721975_s_at) / Fold change /veh TPSAB1 /// TPSB2 (11721975_s_at) / RFU GSTM3 (11746129_a_at) / Fold change /veh GSTM3 (11746129_a_at) / RFU IL23R (11737362_x_at) / Fold change /veh IL23R (11737362_x_at) / RFU TMEM51 (11727254_a_at) / Fold change /veh TMEM51 (11727254_a_at) / RFU PIWIL2 (11732686_x_at) / Fold change /veh PIWIL2 (11732686_x_at) / RFU ORM1 (11744905_x_at) / Fold change /veh ORM1 (11744905_x_at) / RFU CCDC152 (11743942_at) / Fold change /veh CCDC152 (11743942_at) / RFU ECM1 (11717891_a_at) / Fold change /veh ECM1 (11717891_a_at) / RFU IL23R (11748794_a_at) / Fold change /veh IL23R (11748794_a_at) / RFU TNFAIP8L3 (11732012_x_at) / Fold change /veh TNFAIP8L3 (11732012_x_at) / RFU MBOAT4 (11741988_at) / Fold change /veh MBOAT4 (11741988_at) / RFU 11764193_at / Fold change /veh 11764193_at / RFU TMEM53 (11763286_at) / Fold change /veh TMEM53 (11763286_at) / RFU MAGEB2 (11727129_at) / Fold change /veh MAGEB2 (11727129_at) / RFU TMEM200A (11744735_a_at) / Fold change /veh TMEM200A (11744735_a_at) / RFU CCDC152 (11751479_a_at) / Fold change /veh CCDC152 (11751479_a_at) / RFU FAM211A (11726209_a_at) / Fold change /veh FAM211A (11726209_a_at) / RFU RGS16 (11746705_a_at) / Fold change /veh RGS16 (11746705_a_at) / RFU VCAN (11755009_s_at) / Fold change /veh VCAN (11755009_s_at) / RFU RHOB (11743442_s_at) / Fold change /veh RHOB (11743442_s_at) / RFU RGS16 (11720943_a_at) / Fold change /veh RGS16 (11720943_a_at) / RFU RGS16 (11720944_at) / Fold change /veh RGS16 (11720944_at) / RFU, VPS4B / Fold change vs veh, VPS4B / RFU, CREB1 / Fold change vs veh, CREB1 / RFU, DNAJC13 / Fold change vs veh, DNAJC13 / RFU, GNAQ / Fold change vs veh, GNAQ / RFU, CDK5R1 / Fold change vs veh, CDK5R1 / RFU, ZRANB3 / Fold change vs veh, ZRANB3 / RFU, CUL4A / Fold change vs veh, CUL4A / RFU, CCNY / Fold change vs veh, CCNY / RFU, UFL1 / Fold change vs veh, UFL1 / RFU, COG3 / Fold change vs veh, COG3 / RFU, DIAPH2 / Fold change vs veh, DIAPH2 / RFU, SKA2 / Fold change vs veh, SKA2 / RFU, AFF3 / Fold change vs veh, AFF3 / RFU, LMF1 / Fold change vs veh, LMF1 / RFU, IPO11 / Fold change vs veh, IPO11 / RFU, DFFB / Fold change vs veh, DFFB / RFU, FOXP1 / Fold change vs veh, FOXP1 / RFU, CARD8 / Fold change vs veh, CARD8 / RFU, STRN3 / Fold change vs veh, STRN3 / RFU, ADK / Fold change vs veh, ADK / RFU, RASSF2 / Fold change vs veh, RASSF2 / RFU, WIPF1 / Fold change vs veh, WIPF1 / RFU, LARP1B / Fold change vs veh, LARP1B / RFU, RASA1 / Fold change vs veh, RASA1 / RFU, RB1 / Fold change vs veh, RB1 / RFU, PPFIA1 / Fold change vs veh, PPFIA1 / RFU, MAT2A / Fold change vs veh, MAT2A / RFU, CCT5 / Fold change vs veh, CCT5 / RFU, WDR92 / Fold change vs veh, WDR92 / RFU, CUX1 / Fold change vs veh, CUX1 / RFU, TTC7A / Fold change vs veh, TTC7A / RFU, TMEM135 / Fold change vs veh, TMEM135 / RFU, DEPTOR / Fold change vs veh, DEPTOR / RFU, CPM / Fold change vs veh, CPM / RFU, DNAJB6 / Fold change vs veh, DNAJB6 / RFU, CACNA2D3 / Fold change vs veh, CACNA2D3 / RFU, DTX4 / Fold change vs veh, DTX4 / RFU, TFCP2 / Fold change vs veh, TFCP2 / RFU, GMCL1 /// GMCL1P1 / Fold change vs veh, GMCL1 /// GMCL1P1 / RFU, AEBP2 / Fold change vs veh, AEBP2 / RFU, SNHG1 /// SNORD22 /// SNORD25 /// SNORD26 /// SNORD27 /// SNORD28 /// SNORD29 /// SNORD31 / Fold change vs veh, SNHG1 /// SNORD22 /// SNORD25 /// SNORD26 /// SNORD27 /// SNORD28 /// SNORD29 /// SNORD31 / Fold change (Aza/veh), C12orf56 (ProbeSet 11735607_a_at) / Fold change (ACY-1035/veh), C12orf56 (ProbeSet 11735607_a_at) / Fold change (Aza/veh), FGFR1OP (ProbeSet 11751329_s_at) / Fold change (ACY-1035/veh), FGFR1OP (ProbeSet 11751329_s_at) / Fold change (Aza/veh), VPS36 (ProbeSet 11739960_a_at) / Fold change (ACY-1035/veh), VPS36 (ProbeSet 11739960_a_at) / RFU SYPL1 (11715823_x_at) / Fold change /veh SYPL1 (11715823_x_at) / RFU IGFBP7 (11715501_s_at) / Fold change /veh IGFBP7 (11715501_s_at) / RFU REEP3 (11722064_at) / Fold change /veh REEP3 (11722064_at) / RFU IGLL1 (11728026_x_at) / Fold change /veh IGLL1 (11728026_x_at): dose or concentration left out as unconfirmed", "settings": "ProbeSet 11724526_at; LIST B"}
{"smiles": "Nc1ccc(-c2cccs2)cc1NC(=O)c1ccc2c(c1)cc(C1CC1)n2CCN1CCOCC1", "note": "[ACY-1035]", "values": [{"measurement": "Fold change vs veh, FAHD1", "result": 1.05}]}
